Results published in patent publication US10201530B2, “Treatment of BRCA1-defective cancer or resistant cancers” (City of Hope, priority 2014, dated 2019).

What was measured:
A2780-DDDP = assay: Cytotoxicity, A2780-DDDP cells; assay type: cell-based, human; conditions: Homo sapiens, cisplatin-resistant ovarian cells, read-out: IC50, mean ± SEM
Procedure: (§1) All cell lines were acquired from the American Type Culture Collection (Manassas, Va., USA). Cells were maintained in RPMI 1640 medium (Mediatech) with 10% fetal bovine serum, 2 mM glutamine, and 100 U of penicillin and 100 μg of streptomycin per ml of medium (Sigma) at 37° C. in 5% CO2. To isolate HCC1437+BRCA1 cells, parental HCC1937 cells were transfected with pcDNA3.1 plasmid expressing full-length BRCA1 cDNA. Stable transfectant clones were selected and used for drug sensitivity assays. For stable transfection, cells at 30-40% confluence were incubated overnight with […] of plasmid DNA, using FUGENE® 6 transfectin reagent (Roche Molecular Biochemical, Monza, Italy) according to the manufacturer's instructions. Cells were then selected in puromycin (1 μg/ml) (Invitrogen life Technologies, La Jolla, Calif., USA.) After 20 to 30 days, viable puromycin-resistant colonies from HCC1937 transfections were expanded and screened. The clones that stably expressed […] and retained growth potential were assayed for BRCA1 expression by Western blot analysis. By Western blot analysis, we evaluated the restoration of BRCA1 expression in the puromycin-resistant cDNA/transfectant cells.
(§2) The MTT cytotoxicity assay was performed by incubating with MTT and monitoring the MTT formazan formed by viable cells with a microplate reader at a wavelength of 560 nm; the survival, ratio was determined using the formula: (Atest−Ablank)/(Acontrol−Ablank)×100%. The cytotoxicity was determined in 96-well plates using the semiautomatic fluorescence-based Digital Imaging Microscopy System (DIMSCAN). DIMSCAN uses digital imaging microscopy to quantify viable cells, which selectively accumulate FDA (fluorescein diacetate; Alfa Aesar, Ward Hill, Mass.). DIMSCAN is capable of measuring cytotoxicity over a 4 log dynamic range by quantifying total fluorescence per well (which is proportional to the number of viable cells) after elimination of the background fluorescence by digital thresholding and eosin Y (Mallinckrodt Baker, Center Valley, Pa.) quenching. Cells were seeded into 96-well plates in 100 μL of complete medium at 2,000 to 5,000 cells per well depending on cell line growth rate. After overnight incubation, test compound was added to each well at various concentrations in 50 μL of culture medium. After incubation with the drugs for 96 hours at 37° C., FDA (final concentration: 10 mg/mL) and eosin Y [final concentration: 0.1% (w/v)] were added to each well and the cells were incubated for an additional 20 minutes at 37° C. Total fluorescence per well was then measured using DIMSCAN, and the results were expressed as the ratio of the fluorescence in treated wells to the fluorescence in untreated wells (survival fraction).

zebrafish embryos = assay: Zebrafish genotoxicity assay; assay type: in vivo, Danio rerio; conditions: wild-type zebrafish embryos, COH29 0-100 μM
Procedure: Zebrafish (Danio rerio) were obtained from zebrafish Core facility of Taipei Medical University and maintained at 28° C. on a 14 h light/10 h dark cycle. Embryos were incubated at 28° C. and different developmental stages were determined as described (25). Wild-type embryos were treated with different concentrations of HU (0, 5, […], 20, 50 mM) or COH29 (0, 10, 20, 50, 100 μM) at 20 hpf to evaluate the mutagenic effect. Fifteen embryos were treated per well condition. […] Embryos were observed using an Olympus IX70-FLA inverted fluorescence microscope. Images were taken using SPOT digital camera system (Diagnostic Instruments, Sterling Heights, Mich., USA) and assembled with ImageJ software (26).

UWB1.289 + BRCA1 = assay: Cytotoxicity, UWB1.289+BRCA1 cells; assay type: cell-based, human; conditions: Homo sapiens, UWB1289; UWB1.289 + BRCA1 (WT); COH29 72 h; read-out: IC50, mean ± SEM
Procedure: as §1
as §2, with “After incubation with the drugs for 96 hours at 37° C., FDA (final concentration: 10 mg/mL) and eosin Y [final concentration: 0.1% (w/v)] were added to each well and the cells were incubated for an additional 20 minutes at 37° C.” left out

KB-Gem = assay: Cytotoxicity, KB-Gem cells; assay type: cell-based, human; conditions: Homo sapiens, gemcitabine-resistant, read-out: IC50, mean ± SEM
Procedure: as §1, §2

SMILES: O=C(Nc1nc(-c2ccc(O)c(O)c2)c(-c2ccccc2)s1)c1ccc(O)c(O)c1 [COH29]
- IC50 (A2780-DDDP): 6.47 ± 1.41 µM
- viability (zebrafish embryos): no developmental defects (FIG. 5C) or decrease in viability
- developmental defects (zebrafish embryos; HU 0-50 mM): no developmental defects
- IC50 (UWB1.289 + BRCA1): 23.5 ± 2.38 µM
- IC50 (KB-Gem): 7.5 ± 0.29 µM
